Experimental data: paper PMC6854942, “Simultaneous Determination of Three Bioactive Constituents from Bletilla striata by UPLC-MS/MS and Application of the Technique to Pharmacokinetic Analyses” (Evidence-based Complementary and Alternative Medicine : eCAM, 2019)
Where “and” joins values, the source holds several entries; their conditions need not be identical. Identical values can stand only once.

What was measured:
[1] = Stability of each compound in rat plasma (QC samples); assay type: in vitro ADME; settings: n = 5
Procedure: The stability of each compound in rat plasma was evaluated using mixtures containing low, medium, or high concentrations of the QC sample (n = 5 for each concentration level). The stability of each compound was tested under three conditions: room temperature for 6 h, three freeze (−20°C)-thaw (room temperature) cycles, and storage at 4°C for 12 h.

[2] = Pharmacokinetic study in rats after oral administration of B. striata extract (UPLC-MS/MS of plasma); assay type: in vivo, Sprague-Dawley rats; settings: for bioavailability: rats, AUC0−t oral (22.2 g/kg extract) vs i.v. (1.64 g/kg extract), dose-corrected, read-out: Bioavailability (absolute); for MRT last: read-out: MRT0–t; for MRT inf: read-out: MRT0–∞
Procedure: (§1) An ACQUITY™ UPLC system (Waters Corp., Milford, MA, USA) with a conditioned autosampler and the ACQUITY™ UPLC BEH C18 analytical column (50 mm × 2.1 mm, internal diameter, 1.7 μm; Waters Corp., Milford, MA, USA) were used, to which a 6 mm precolumn filter unit was added. Analysis was carried out with an elution gradient of (A) acetonitrile and (B) water (both containing 0.1% formic acid) at a flow rate of 0.35 mL/min as follows: 0–0.5 min (10% A), 0.5–1.0 min (10–30% A), 1.0–2.0 min (30–35% A), 2.0–3.0 min (35–38% A), 3.0–4.0 min (38–90% A), and 4.0–5.0 min (90–10% A). The column and autosampler were maintained at 45°C and 15°C, respectively. The injection volume was 2 μL.
(§2) Mass spectrometric detection was performed using a Waters ACQUITY™ TQD triple quadrupole tandem mass spectrometer (Waters Corp., Manchester, UK) with an ESI interface in the positive ionization mode. The MS conditions were as follows: capillary voltage, 3.0 kV; desolvation gas flow, 650 L/h of nitrogen; and cone gas flow, 50 L/h of nitrogen. The collision gas (Ar) flow for MS/MS was maintained at 0.16 mL/min for collision-induced dissociation (CID). The source and desolvation gas temperatures were 120°C and 350°C, respectively. The multiple reaction monitoring (MRM) mode was used for quantification. All data were acquired using Masslynx™ V 4.1 Software and processed using Quanlyna™ V4.1 (Waters Corp., Millford, MA, USA).
(§3) Ten microliters of the IS solution (puerarin, 10 μg/mL in methanol) and 50 μL of 1% formic acid were added to 100 μL of rat plasma. Proteins were precipitated by addition of 400 μL of methanol, vortexing for 1 min, sonication for 5 min, followed by centrifugation at 13225 ×g for 10 min at 4°C, collecting the supernatant in a centrifuge tube, and drying at 37°C N2. Subsequently, 300 μL of the initial mobile phase was dissolved, sonicated for 5 min, and centrifuged at 5°C and 13225 ×g for 5 min, and the supernatant was used for analysis by UPLC-MS/MS.
(§4) The twelve Sprague-Dawley rats were housed under a controlled temperature regimen (22 ± 1°C) and relative humidity of 50–70%. The animals were maintained on a 12 h light/12 h dark cycle and had free access to food and water. They were fasted for 12 h before each experiment but allowed to drink freely during this time. Before the experiment, the B. striata extracts' intravenous and oral dosing solutions were prepared in physiological saline at concentrations of 1.03 g/mL and 2.78 g/mL, respectively. The 12 rats were randomly divided into two groups with 6 rats in each group. Group 1 underwent oral administration (22.2 g/kg), and group 2 underwent intravenous administration (1.64 g/kg). Blood samples (0.3 mL) were collected from the external right jugular veins of the rats into heparinized tubes at the designated time points (0.033, 0.083, 0.167, 0.33, 0.5, 1, 1.5, 2, 10, 24, 36, and 48 h for group 1 and 0.033, 0.083, 0.167, 0.25, 0.33, 0.5, 0.75, 1, 1.6, and 2 h for group 2). The blood samples were immediately centrifuged at 3000 ×g for 5 min. The plasma was removed and frozen at −20°C until further analysis.
(§5) Data are represented as mean± standard deviation. To determine the pharmacokinetic parameters, the concentration-time data were analyzed by DAS 2.0 software (Mathematical Pharmacology Professional Committee of China, Shanghai, China). Statistical analysis was performed using the statistical software package Statistical Product and Service Solutions (SPSS 11.5, USA). The absolute bioavailability was calculated using the following equation: F (%) = [AUC0 − t (oral) × dose (i.v.)]/[AUC0 − t (i.v.) × dose (oral)]) × 100.

[3] = Pharmacokinetic study in rats after intravenous administration of B. striata extract (UPLC-MS/MS of plasma); assay type: in vivo, Sprague-Dawley rats; settings: intravenous administration of B. striata extract 1.64 g/kg, rat plasma, n = 6; for MRT last / MRT inf: Sprague-Dawley; for MRT last: read-out: MRT0–t; for MRT inf: read-out: MRT0–∞
Procedure: as §1, §2, §3, §4, §5

[4] = 3 freeze-thaw cycles (−20°C / room temperature), low QC (spiked 0.029 / 0.022 / 0.015 μg/mL)
[5] = 3 freeze-thaw cycles, high QC (spiked 36.78 / 13.75 / 23.78 μg/mL)
[6] = 3 freeze-thaw cycles, medium QC (spiked 4.09 / 2.75 / 2.64 μg/mL)
[7] = 6 h, room temperature, high QC (spiked 36.78 / 13.75 / 23.78 μg/mL)
[8] = 6 h, room temperature, low QC (spiked 0.029 / 0.022 / 0.015 μg/mL)
[9] = 6 h, room temperature, medium QC (spiked 4.09 / 2.75 / 2.64 μg/mL)
[10] = 12 h, 4°C, high QC (spiked 36.78 / 13.75 / 23.78 μg/mL)
[11] = 12 h, 4°C, low QC (spiked 0.029 / 0.022 / 0.015 μg/mL)
[12] = 12 h, 4°C, medium QC (spiked 4.09 / 2.75 / 2.64 μg/mL)
[13] = Sprague-Dawley, oral administration of B. striata extract 22.2 g/kg, rat plasma, n = 6
[14] = oral administration of B. striata extract 22.2 g/kg, rat plasma, n = 6

Structure (SMILES)	Accuracy [1, 4]	Calculated concentration [1, 4]	Calculated concentration [1, 5]	Calculated concentration [1, 6]	Calculated concentration [1, 7]	Accuracy [1, 8]	Calculated concentration [1, 8]	Calculated concentration [1, 9]	Accuracy [1, 10]	Calculated concentration [1, 10]	Accuracy [1, 11]	Calculated concentration [1, 11]	Accuracy [1, 12]	Calculated concentration [1, 12]	bioavailability ([2]; Sprague-Dawley, rat, plasma)	Cmax [2, 13]	MRT last [2, 13]	MRT inf [2, 13]	AUC0–t [2, 14]	AUC0–∞ [2, 14]	also measured
CC(C)C[C@@](O)(CC(=O)O)C(=O)OCc1ccc(O[C@@H]2O[C@H](CO)[C@@H](O)[C@H](O)[C@H]2O)cc1 [Gymnoside I, gymnoside I]	100.3%	0.022 ± 0.001 µg/mL	13.92 ± 0.57 µg/mL	2.74 ± 0.10 µg/mL	13.69 ± 0.39 µg/mL	100.2%	0.022 ± 0.001 µg/mL	2.77 ± 0.08 µg/mL	96.1%	13.22 ± 0.49 µg/mL	95.4%	0.021 ± 0.001 µg/mL	97.5%	2.68 ± 0.15 µg/mL	9.8%	3060 ± 4820 ng/mL	12.4 ± 3.73 h	16 ± 5.34 h	20.56 ± 12.05 h∗μg/mL	21.81 ± 12.04 h∗μg/mL	T max [2, 14]: 1.44 ± 2.29 h; T max ([2]; oral administration of B. striata extract 22.2 g/kg, rat plasma, n = 6, listed as gymnoside I): 0.16 h; MRT last [3]: 0.68 ± 0.07 h; MRT inf [3]: 0.93 ± 0.18 h; AUC0–t [3]: 15.47 ± 1.63 h∗μg/mL; AUC0–∞ [3]: 17.52 ± 2.66 h∗μg/mL
CC(C)C[C@@](O)(CC(=O)OCc1ccc(O[C@@H]2O[C@H](CO)[C@@H](O)[C@H](O)[C@H]2O)cc1)C(=O)OCc1ccc(O[C@@H]2O[C@H](CO)[C@@H](O)[C@H](O)[C@H]2O)cc1 [Militarine, militarine]	100.7%	0.015 ± 0.001 µg/mL	21.8 ± 0.94 µg/mL	2.62 ± 0.09 µg/mL	21.3 ± 0.94 µg/mL	106.7%	0.016 ± 0.001 µg/mL	2.62 ± 0.09 µg/mL	92.3%	21.95 ± 1.1 µg/mL	100.1%	0.015 ± 0.001 µg/mL	93.2%	2.46 ± 0.28 µg/mL	0.6%	3300 ± 3600 ng/mL	5.62 ± 2.45 h	9.31 ± 2.57 h	3.10 ± 1.16 h∗μg/mL	4.26 ± 1.93 h∗μg/mL	Accuracy [1, 5]: 91.7%; Accuracy [1, 6]: 99.2%; Accuracy [1, 7]: 89.6%; Accuracy [1, 9]: 99.2%; T max [2, 14]: 0.16 ± 0.11 h; T max ([2]; oral administration of B. striata extract 22.2 g/kg, rat plasma, n = 6, listed as militarine): 1.44 h; MRT last [3]: 0.36 ± 0.06 h; MRT inf [3]: 0.39 ± 0.07 h; AUC0–t [3]: 36.71 ± 5.66 h∗μg/mL; AUC0–∞ [3]: 37.22 ± 5.99 h∗μg/mL
CC(C)C[C@@](O)(CC(=O)O)C(=O)O [α-Isobutylmalic acid]	93.1%	0.027 ± 0.001 µg/mL	34.17 ± 1.28 µg/mL	3.83 ± 0.08 µg/mL	34.95 ± 1.89 µg/mL	103.4%	0.03 ± 0.001 µg/mL	3.77 ± 0.09 µg/mL	94.4%	34.71 ± 1.95 µg/mL	96.6%	0.028 ± 0.002 µg/mL	95.8%	3.92 ± 0.11 µg/mL	87.5% and 87.4%	23200 ± 5420 ng/mL	15.6 ± 3.63 h	19.7 ± 6.25 h	458.12 ± 150.74 h∗μg/mL	498.36 ± 173.09 h∗μg/mL	Accuracy [1, 5]: 92.9%; Accuracy [1, 6]: 93.6%; Accuracy [1, 7]: 95.0%; Accuracy [1, 9]: 92.2%; Tmax ([2]; Sprague-Dawley, rat, plasma, po, 22.2 g/kg, oral administration of B. striata extract 22.2 g/kg, rat plasma, n = 6): 6.44 ± 2.33 h; MRT last [3]: 0.45 ± 0.08 h; MRT inf [3]: 0.51 ± 0.1 h; AUC0–t [3]: 38.7 ± 4.72 h∗μg/mL; AUC0–∞ [3]: 39.62 ± 4.26 h∗μg/mL
